Data reported in a melting point compilation (Tetko et al.; mined from patent text by program, amines drawn as free bases though some values may be those of a salt).

First: CCOC(=O)CC(NC(=O)C1CCCCC1)C(=O)c1ccco1 (centres undefined)
Second: CC(C)(C)OC(=O)N[C@@H]1CN(C2CCCCC2)c2ccccc2NC1=O
The melting point of the first is lower: 58 to 61 °C for the first, 156 to 159 °C for the second.

First: O=[N+]([O-])c1ccc(Cc2nc3c(s2)CCCC3)cc1
Second: COc1ccc2cccc3c2c1C(CC(=O)O)CC3 (centres undefined)
The melting point of the first is lower: 118 to 119 °C for the first, 147 °C for the second.

First: O=C(Nc1ccc(F)c(CBr)c1)c1ccccn1
Second: CC(CNS(=O)(=O)c1ccccc1)c1ccc(OCC(=O)O)c(F)c1 (centres undefined)
The melting point of the first is higher: 137 to 138 °C for the first, 49 to 51 °C for the second.

First: CNCCc1ccc2[nH]cc(S(=O)(=O)c3ccccc3)c2c1
Second: COc1ccc(CCc2nc3ccccc3c(=O)n2CCN(C)C)cc1
The melting point of the first is higher: 151 to 154 °C for the first, 73.5 to 74.5 °C for the second.

First: Cc1cccc2c1N(CC(=O)N1CC3CCC(CC3)C1)C(=O)C(NC(=O)Nc1cccc(C=O)c1)N=C2c1ccccc1F (centres undefined)
Second: CCOC(=O)c1ccc2cc(-c3cccc4ccccc34)ccn2c1=O
The melting point of the first is lower: 237 to 242 °C for the first, 245 to 247 °C for the second.

First: CCN(C(=O)OC)C1=CC(=O)CC1
Second: CCOC(=O)c1sc(NC(=O)NN)nc1C
The melting point of the first is lower: 68 to 68.5 °C for the first, 225 to 230 °C for the second.

Compared with `O=CNc1nc(S(=O)(=O)Cl)n[nH]1`, `CCOC(=O)n1ccc(=O)c2cnc(N3CCN(CC)CC3)nc21` is lower in melting point: 194 to 196 °C for the first, 161 °C for the second.

Compared with `CCC(CC)(CCc1ccc(Cl)cc1)NC(=O)n1nc(N(C)C)n(N=C(C)CC(C)C)c1=O`, `CCC(O)(C#Cc1ncn2c1CN(C)C(=O)c1c(Cl)cccc1-2)CC` is higher in melting point: 121 °C for the first, 186 to 188 °C for the second.

First: O=S(=O)(/C=C/c1ccc(Br)cc1)CS(=O)(=O)/C=C/c1ccc(Br)cc1
Second: CC(C)c1ccc(/C=C/c2cc(/C=C/c3ccc4cc[nH]c4c3)n[nH]2)cc1
The melting point of the first is higher: 213 to 215 °C for the first, 208 to 212 °C for the second.

First: CCc1ccc(-c2[nH]nc3c2C(=O)c2c(NC(C)=O)cccc2-3)cc1
Second: CCOc1c(N)cc(-c2cccc3ccccc23)c2nc(C(=O)O)ccc12
The melting point of the first is higher: 294 °C for the first, 182 to 184 °C for the second.

Compared with `COc1ccc(NCCCOc2ccc3cc(OCCCNc4ccc(OC)cc4)ccc3c2)cc1`, `CCOc1cccc2cc(C(=O)c3cc(OC)ccc3OC)oc12` is lower in melting point: 129 °C for the first, 55 to 57 °C for the second.

First: CC(=O)NCc1ccc2ccn(C3CCN(CCCCc4ccc(F)cc4)CC3)c2c1
Second: O=C(NO)c1ccc(CNC(=O)c2[nH]c(-c3ccccc3)cc2-c2ccc(F)cc2)o1
The melting point of the first is lower: 59 to 60 °C for the first, 152 to 153 °C for the second.

First: CC12CCCCC1(O)CCC1C2CCC2(C)C1CC13OCCOC12OCCO3 (centres undefined)
Second: COc1ccc(N2CCN(c3c(C)c(C)c4c(c3C)C(CN3CCCC3)C(C)(C)O4)CC2)cc1 (centres undefined)
The melting point of the first is higher: 160 to 162 °C for the first, 94 to 96 °C for the second.

First: O=S1(=O)N=CN(C2CC2)c2cc(Cl)c(F)cc21
Second: CC(=O)NC[C@H]1CN(c2ccc(N3CCN(C(=S)CN)CC3)c(F)c2)C(=O)O1
The melting point of the first is higher: 205 to 206 °C for the first, 202 to 204 °C for the second.

First: NC(=O)c1c(C(F)(F)F)ccc(Cl)c1Cl
Second: CC(=O)Nc1scc(C(C)(C)C)c1C(N)=O
The melting point of the first is lower: 118 to 120 °C for the first, 251 °C for the second.

First: CCn1c(COC(=O)NC(=O)C(C)(C)C)nc(C(C)C)c1Sc1cc(Cl)cc(Cl)c1
Second: CC(C)(C)OC(=O)Nc1cc(OC(C)(C)C)c(I)cc1[N+](=O)[O-]
The melting point of the first is higher: 157 to 159 °C for the first, 94 °C for the second.

First: CN1CCN(CCC(=O)Nc2ccc3c(c2)C(=O)c2cc(NC(=O)CCN4CCN(C)CC4)ccc2C3=O)CC1
Second: CCC1CCCCN1C(=O)Nc1ccccc1CCc1cc(C(C)(C)C)c(O)c(C(C)(C)C)c1 (centres undefined)
The melting point of the first is higher: 284 °C for the first, 137 to 138 °C for the second.

First: O=c1[nH][nH]c(=S)n(CCO)c1=O
Second: NCCCNC(=O)CCn1cnc2c(=O)[nH]cnc21
The melting point of the first is higher: 230 °C for the first, 172 to 175 °C for the second.

Compared with `Cc1c(CN2CCc3c(c4cccc(Br)c4n3C)C2=O)ncn1S(=O)(=O)N(C)C`, `CN(C)S(=O)(=O)n1c(C(=S)NC(=O)NS(=O)(=O)c2ccccc2Cl)nc2cc(Cl)c(Cl)cc21` is lower in melting point: 182 to 185 °C for the first, 131 to 132 °C for the second.

Compared with `C=C(C)C(=O)Nc1cc(C(C)(C)C)c(O)c(C(C)(C)C)c1`, `CC(=O)OC1CSC(Oc2cc(-c3ccc(F)nc3)cnc2F)C(OC(C)=O)C1OC(C)=O` (centres undefined) is lower in melting point: 222 to 225 °C for the first, 135 to 136 °C for the second.

First: N#CN1CCC(=C2c3ccccc3CCc3ccncc32)CC1
Second: O=C(Nc1nccs1)c1nc(-c2ccc(N3CCC(N4CCOCC4)CC3)cc2)[nH]c1-c1ccc(Cl)cc1
The melting point of the first is higher: 212 to 214 °C for the first, 165 to 170 °C for the second.

First: C#Cc1cccc(-c2cccc([N+](=O)[O-])c2-c2cc(C#C)ccn2)c1
Second: Cn1nc(-c2c(Nc3ccccc3)nc(N)nc2-c2ccccc2)ccc1=O
The melting point of the first is lower: 130 to 132 °C for the first, 252 to 254 °C for the second.

First: CCOC(=O)C(Cc1ccccc1)C(=O)Nc1ccc(CP(=O)(OCC)OCC)cc1 (centres undefined)
Second: CN(C)c1ccc(C=CC(O)Cc2ccccc2)cc1 (centres undefined)
The melting point of the first is lower: 115 to 116 °C for the first, 158 to 162 °C for the second.

First: O=C(/C=C/c1ccc2ccccc2c1)Nc1cc(Cl)ccc1OCc1nnn[nH]1
Second: O=C(O)CCCCCCCCCCC(=O)c1ccccc1
The melting point of the first is higher: 218 to 223 °C for the first, 83 to 86 °C for the second.

In the case of `CC(=O)C1CCCS1(=O)=O` (centres undefined), the melting point is reported as 119 to 120 °C.
